We go through four molecules from patent US9657062B2, “Ghrelin analogues” (Zealand Pharma A/S, priority 2012, dated 2017).

Test [1] addresses T1, human ghrelin receptor (GHSR1a) (Homo sapiens, UniProt Q92847).
T1 construct: expressed in transfected cells; plasmid pIRESneo2dNGFR
The test can be described thus: Ghrelin receptor functional assay (Ca2+ induction, Fluo-4, FLIPR) in HEK293 cells stably expressing the human ghrelin receptor. Format: cell-based. Particulars: HEK293 cell line stably expressing human GHSR1a.
Excerpt: To test activation of the ghrelin receptor, stable cell lines expressing the human ghrelin receptor were produced. In brief, HEK293 cells were used for transfection of the cDNA for human ghrelin receptor cloned into the transfection plasmid pIRESneo2dNGFR. […] The DNA encoding the ghrelin receptor was amplified by PCR using primers also encoding terminal restriction sites for subcloning. The ghrelin receptor was subcloned into a mammalian expression vector containing a neomycin (G418) resistance marker. The fidelity of the DNA encoding the receptor was confirmed by DNA sequencing. HEK293 cells were used for transfection of the ghrelin receptor expression plasmid. The cells were grown according to standard protocol in growth medium and transfected with the plasmids using Lipofectamin (Invitrogen) according to the manufacturer's protocol. […]
The plate with test compounds was pre-warmed before starting the measurements. […] The program measures basal level of fluorescence of Fluo-4 for 10 seconds, adds 100 μl of peptide solution to the cells and measures the change in fluorescence as a consequence of the changes in Ca^2+ concentration in the cells. The output used for calculation of activity was selected to be the maximal response (expressed as a ratio to the basal level. EC50 values) and maximal response values were determined based on these values.

The test system of test [2] is normal chow-fed C57BL/6J male mice. Put plainly: Effect on food intake in normal mice (HM-2 automated monitoring). Particulars: 300 nmol/kg s.c. once, light phase 0-6 h, modified protocol (food access re-opened 2 h after dosing). Format: in vivo, mouse. How it is done:
Normal chow-fed C57BL/6J male mice were used. The mice were kept in an automated food- and water-intake monitoring system (HM-2) which allows automated on-line measurements of accumulated food intake (FI) and other parameters. Food intake was monitored by the HM-2 system up to 24 h after dosing. The mice were kept 6 per cage, and each dosing group consisted of 6 animals.
In the initial experimental set-up with ghrelin as test compound, animals were allowed free access to food directly after treatment, and the resulting data for food intake are shown in FIG. 1A herein (vide infra).
In order to further investigate the “duration of action” of ghrelin and the other test compounds a new protocol was defined. In the modified protocol the gate to the food chambers was closed prior to dosing with vehicle or test compound and was re-opened 2 hours thereafter. The resulting data for food intake following dosing with ghrelin or vehicle are summarized in FIG. 1B (vide infra), while the corresponding data for food intake following dosing with each of the of the other four test compounds. (Compound 16, 22, 23 or 43 of the invention) or with vehicle are summarized in FIG. 2A (data for monitoring up to 6 hours after dosing) and FIG. 2B (data for monitoring up to 24 hours after dosing).

Where a SMILES comes first, the peptide text is derived from it. The star is where a group is joined. Octyl = CCCCCCCC*

T1 sequence (Q92847 whole entry): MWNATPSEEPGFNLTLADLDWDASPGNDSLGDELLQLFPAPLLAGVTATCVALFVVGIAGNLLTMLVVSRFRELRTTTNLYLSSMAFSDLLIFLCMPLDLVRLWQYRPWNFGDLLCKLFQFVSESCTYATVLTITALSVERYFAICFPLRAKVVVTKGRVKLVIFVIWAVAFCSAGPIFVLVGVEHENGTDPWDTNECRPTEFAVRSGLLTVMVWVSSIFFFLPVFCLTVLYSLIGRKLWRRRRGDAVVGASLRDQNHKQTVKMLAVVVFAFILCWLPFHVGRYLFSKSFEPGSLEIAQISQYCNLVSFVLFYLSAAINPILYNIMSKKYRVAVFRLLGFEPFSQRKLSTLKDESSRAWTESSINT

As for `CCCCCCCCOC[C@H](NC(=O)[C@H](CO)NC(=O)[C@@H]1CCCN1)C(=O)N[C@@H](Cc1ccccc1)C(=O)N[C@@H](CC(C)C)C(=O)N[C@@H](CO)C(=O)N1CCC[C@H]1C(=O)N[C@@H](CCC(=O)O)C(=O)N[C@@H](Cc1c[nH]cn1)C(=O)N[C@@H](CCC(N)=O)C(=O)N[C@@H](CCCNC(=N)N)C(=O)N[C@H](C(=O)N[C@@H](CCC(N)=O)C(=O)N[C@@H](CCCNC(=N)N)C(=O)N[C@@H](CCCCN)C(=O)N[C@@H](CCC(=O)O)C(=O)N[C@@H](CO)C(=O)N[C@@H](CCCCN)C(=O)N[C@@H](CCCCN)C(=O)N1CCC[C@H]1C(=O)N1CCC[C@H]1C(=O)N[C@@H](C)C(=O)N[C@@H](CCCCN)C(=O)N[C@@H](CC(C)C)C(=O)N[C@@H](CCC(N)=O)C(=O)N1CCC[C@H]1C(=O)N[C@@H](CCCNC(=N)N)C(N)=O)C(C)C` [Compound 38] (H-PSS(Octyl)FLSPEHQRVQRKESKKPPAKLQPR-NH2), in test [1], the EC50 – broadly, the concentration giving half of the maximal effect – is 0.33 nM.

`CC(C)C[C@H](NC(=O)[C@H](CCCCN)NC(=O)[C@H](C)NC(=O)[C@@H]1CCCN1C(=O)[C@@H]1CCCN1C(=O)[C@H](CCCCN)NC(=O)[C@H](CCCCN)NC(=O)[C@H](CO)NC(=O)[C@H](CCC(=O)O)NC(=O)[C@H](CCCCN)NC(=O)[C@H](CCCNC(=N)N)NC(=O)[C@H](CCC(N)=O)NC(=O)[C@H](CCC(N)=O)NC(=O)[C@H](C)NC(=O)[C@H](CCCCN)NC(=O)[C@H](CCC(N)=O)NC(=O)[C@H](Cc1c[nH]cn1)NC(=O)[C@H](CCC(=O)O)NC(=O)[C@@H]1CCCN1C(=O)[C@H](CO)NC(=O)[C@H](CC(C)C)NC(=O)[C@H](Cc1ccccc1)NC(=O)[C@H](CO)NC(=O)[C@H](CO)NC(=O)CN)C(=O)N[C@@H](CCC(N)=O)C(=O)N1CCC[C@H]1C(=O)N[C@@H](CCCNC(=N)N)C(=O)O` [Compound 4, reference compound] showed an EC50 in test [1] of more than 1000 nM. Take `CCCCCCCCOC[C@H](NC(=O)[C@H](CO)NC(=O)[C@@H]1CCCN1)C(=O)N[C@@H](Cc1ccccc1)C(=O)N[C@@H](CC(C)C)C(=O)N[C@@H](CO)C(=O)N1CCC[C@H]1C(=O)N[C@@H](CCC(=O)O)C(=O)N[C@@H](Cc1c[nH]cn1)C(=O)N[C@@H](CO)C(=O)N[C@@H](CCCNC(=N)N)C(=O)N[C@H](C(=O)N[C@@H](CO)C(=O)N[C@@H](CO)C(=O)N[C@@H](CCCNC(=N)N)C(=O)N[C@@H](CCCCN)C(=O)N[C@@H](CCC(=O)O)C(=O)N[C@@H](CO)C(=O)N[C@@H](CO)C(=O)N[C@@H](CO)C(=O)N1CCC[C@H]1C(=O)N1CCC[C@H]1C(=O)N[C@@H](C)C(=O)N[C@@H](CCCCN)C(=O)N[C@@H](CC(C)C)C(=O)N[C@@H](CO)C(=O)N1CCC[C@H]1C(=O)N[C@@H](CCCNC(=N)N)C(N)=O)C(C)C` [Compound 47] (H-PSS(Octyl)FLSPEHSRVSSRKESSSPPAKLSPR-NH2): the “Accumulated FI at 6h” value in test [2] was found to be 1.55 ± 0.16 g.

For the molecule `CCCCCCCCOC[C@H](NC(=O)[C@H](CO)NC(=O)[C@@H]1CCCN1)C(=O)N[C@@H](Cc1ccccc1)C(=O)N[C@@H](CC(C)C)C(=O)N[C@@H](CO)C(=O)N1CCC[C@H]1C(=O)N[C@@H](CCC(=O)O)C(=O)N[C@@H](Cc1c[nH]cn1)C(=O)N[C@@H](CO)C(=O)N[C@@H](CCCNC(=N)N)C(=O)N[C@H](C(=O)N[C@@H](CO)C(=O)N[C@@H](CO)C(=O)N[C@@H](CCCNC(=N)N)C(=O)N[C@@H](CCCCN)C(=O)N[C@@H](CCC(=O)O)C(=O)N[C@@H](CO)C(=O)N[C@@H](CCCCN)C(=O)N[C@@H](CO)C(=O)N1CCC[C@H]1C(=O)N1CCC[C@H]1C(=O)N[C@@H](C)C(=O)N[C@@H](CCCCN)C(=O)N[C@@H](CC(C)C)C(=O)N[C@@H](CO)C(=O)N1CCC[C@H]1C(=O)N[C@@H](CCCNC(=N)N)C(N)=O)C(C)C` [Compound 46] (H-PSS(Octyl)FLSPEHSRVSSRKESKSPPAKLSPR-NH2), the “Accumulated FI at 6h” value in test [2] is recorded as 1.68 ± 0.2 g.
